Here are results for 78 compounds from the METLIN SMRT retention time set (Domingo-Almenara et al. 2019).

This data set can be described thus: gradient 5% acetonitrile 3 min, to 50% in 2 min, to 85% in 15 min, held 3 min, 100 µL/min. The following applies: column: Zorbax Extend-C18 2.1 x 50 mm; eluents: water / acetonitrile, 0.1% formic acid. Summed up: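 Using water and acetonitrile that each contained 0.1% formic acid, mixtures of ~100 pure standards were separated at 100 μL/min on a Zorbax Extend-C18 column (2.1 × 50 mm, 1.8 μm). The HPLC fed a quadrupole time-of-flight mass spectrometer working in positive and negative ionization mode, with dead and dwell volumes of 40 μL and 900 μL. Data were acquired over 3 months. Retention time was read from computationally picked adduct peaks after manual inspection of each.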
For the compound `O=C(c1ccc(-c2nccnc2N2CCCC2)cc1)N1CCC(Cc2ccccc2)CC1`, the RP-LC retention time amounted to 1110 s.

Compound `COC(=O)c1sccc1NC(=O)Cn1cc(-c2nc(-c3ccc(Cl)cc3)no2)ccc1=O` gave an RP-LC retention time of 1100 s.

The compound `COc1ccc(NC(=O)N2CCCC(C)(C(=O)NCc3cccc(OC)c3)C2)cc1` (stereo not drawn) returned an RP-LC retention time of 792 s.

Turning to `Cc1cccc(CNC(=O)c2ccc(CN3CCN(C(C)C)C(=O)C3=O)cc2)c1`, the RP-LC retention time turned out to be 714 s.

Turning to `O=C(Cc1ccccc1F)N1CCc2cc(-c3ccno3)ccc21`, the RP-LC retention time was found to be 961 s.

Take `COc1cccc(OCC(=O)N2CC(=O)Nc3ccccc32)c1`: the RP-LC retention time was 869 s.

On to `Cc1ccc2nc(-c3ccccc3F)c(Nc3c(C)cccc3C)n2c1`, for which the RP-LC retention time is 793 s.

The compound `CCC1CCCCN1C(=O)c1cnc2nc(C)ccc2c1Nc1ccc(OC)cc1` (stereo not drawn) returned an RP-LC retention time of 665 s.

The compound `COc1ccc2[nH]cc(CCNC(=O)c3cc(Cl)ccc3Cl)c2c1` registered an RP-LC retention time of 878 s.

For the compound `O=C(CN1C(=O)C2CCCCN2c2ccc(C(=O)N3CCCC3)cc21)NCCCN1CCCCCC1` (stereo not drawn), the RP-LC retention time came to 639 s.

As to `O=C(COc1ncccn1)N1CCN(c2ncccn2)CC1`, the RP-LC retention time amounted to 579 s.

With `COc1cc(OC)cc(-c2nc(-c3cn(-c4cccc(F)c4)nn3)no2)c1`, the RP-LC retention time was found to be 1090 s.

In turn, `Cc1cccc(NC(=O)N2CCc3[nH]cnc3C2c2ccncc2)c1` (stereo not drawn) had an RP-LC retention time of 557 s.

In turn, `CN(C)CCN1CC(C(=O)N2CCC(c3c[nH]c4ccccc34)(c3c[nH]c4ccccc34)CC2)CC1=O` (stereo not drawn) registered an RP-LC retention time of 657 s.

Compound `O=C(Cc1ccc(F)cc1)NCCNc1cc(-n2cccn2)ncn1` displayed an RP-LC retention time of 652 s.

`COc1ccc(NC(=O)c2cn(-c3cc(N4CCCC(C)C4)ncn3)cn2)cc1OC` (stereo not drawn) showed an RP-LC retention time of 973 s.

In turn, `CCc1nc(-c2cc(S(=O)(=O)NCC(=O)NC3CCCCC3)c(C)s2)no1` displayed an RP-LC retention time of 906 s.

For the compound `O=C(CCC1CCCN(S(=O)(=O)c2ccccc2F)C1)NCCN1CCOCC1` (stereo not drawn), the RP-LC retention time came out at 642 s.

`O=C(c1cccc(Cl)c1)N1CCC2(CC1)N=C(c1cccc(Br)c1)NO2` gave an RP-LC retention time of 970 s.

In turn, `Cc1ccccc1N1CCN(c2nccn3nc(-c4ccccc4)cc23)CC1` gave an RP-LC retention time of 1300 s.

For the compound `CN1CCCC1c1nc(C2CN(C(=O)c3n[nH]c(=O)c4ccccc34)C2)no1` (stereo not drawn), the RP-LC retention time was determined as 560 s.

For the compound `COc1ccccc1NS(=O)(=O)c1cc2c(s1)CCN(C(=O)C1CCC1)C2`, the RP-LC retention time came out at 890 s.

For the compound `Cc1ccc(CNC(=O)CCc2c(C)nn(-c3cc(N4CCCCC4)ncn3)c2C)o1`, the RP-LC retention time is 882 s.

As for `O=C(CSCc1ccccc1)NCC1(c2cccs2)CCOCC1`, the RP-LC retention time was found to be 819 s.

`COc1ccccc1N1C(=O)N(c2ccc([N+](=O)[O-])cc2)C2CS(=O)(=O)CC21` (stereo not drawn) showed an RP-LC retention time of 745 s.

Compound `CC(C)(C)c1ccc(C(=O)NC2CCN(c3cc(-c4ccc(F)cc4)[nH]n3)C2)cc1` (stereo not drawn) showed an RP-LC retention time of 899 s.

In turn, `Oc1ccc(-c2nc3ncccn3c2Nc2cccc(C(F)(F)F)c2)cc1` displayed an RP-LC retention time of 764 s.

Regarding `CSc1ccc(-c2nc3ncccn3c2Nc2c(C)cccc2C)cc1`, the RP-LC retention time came out at 864 s.

Consider `COc1cccc2cc(C(=O)Nc3cc(C)nn3-c3ccccc3)oc12`, for which the RP-LC retention time was determined as 832 s.

Compound `O=C(NCc1ccc(F)cc1)N1CCN(c2nc3ccccc3nc2C(F)(F)F)CC1` came in with an RP-LC retention time of 1010 s.

In turn, `Cc1cccc(-c2ncccc2CNS(=O)(=O)c2cc(F)ccc2F)c1` displayed an RP-LC retention time of 738 s.

`CCCOc1nc2ccccc2nc1N1CCCC(C(=O)Nc2ccccc2OC)C1` (stereo not drawn) registered an RP-LC retention time of 1320 s.

For the compound `COc1cc(C(CC(=O)N2CCCCCC2)N2Cc3ccccc3C2=O)cc(OC)c1OC` (stereo not drawn), the RP-LC retention time is 797 s.

`CCc1cccc(Nc2c(-c3nc(C)no3)cnc3nc(C)ccc23)c1` had an RP-LC retention time of 835 s.

On to `CC(=O)N1CCc2cc(N3CC(C(=O)NCc4ccco4)CC3=O)ccc21` (stereo not drawn), for which the RP-LC retention time amounted to 640 s.

In turn, `CCC(=O)N1N=C(c2cccc(NS(=O)(=O)CC)c2)CC1c1cccc([N+](=O)[O-])c1` (stereo not drawn) showed an RP-LC retention time of 651 s.

The compound `COc1ccc(S(=O)(=O)N2C[C@@H](F)C[C@H]2C(=O)N2CCc3ccccc3C2)cc1` returned an RP-LC retention time of 877 s.

For the compound `Cc1cccc(Cc2cnc[nH]2)c1C`, the RP-LC retention time worked out at 667 s.

`O=C(Cc1ccsc1)Nc1cccc(-c2nnc3n2CCCC3)c1` had an RP-LC retention time of 668 s.

`COc1cc(CC(=O)N2CCc3cc(-c4cc(C)no4)ccc32)cc(OC)c1`: the RP-LC retention time stood at 951 s.

`COc1cccc(C(=O)NCc2nn(C)c3ccccc23)c1`: the RP-LC retention time was 779 s.

On to `CCOc1ccc(NC(=O)N2CCN(c3nc4cccnc4s3)CC2)cc1`, for which the RP-LC retention time is 752 s.

`Nc1ccc2ncnc(N3CCCCC3)c2c1` yielded an RP-LC retention time of 593 s.

`COc1ccc(Cl)c2c(=O)c3c([nH]c12)CCN(CC(=O)NCc1ccc(F)cc1)C3` displayed an RP-LC retention time of 612 s.

The compound `Cc1cc(C)c2[nH]c3c(c(=O)c2c1)CN(CC(=O)NCc1ccc2c(c1)OCO2)CC3` yielded an RP-LC retention time of 620 s.

With `Cc1nn(C)c(C)c1CNC(=O)CN1C(=O)C2CCCCN2c2ccc(S(=O)(=O)N(C)C)cc21` (stereo not drawn), the RP-LC retention time worked out at 693 s.

`Cn1nnnc1SCC(=O)NCCOc1ccc(-c2ccc(F)cc2)nn1` had an RP-LC retention time of 654 s.

Turning to `Cn1ccc2c(cc(C(=O)NCc3ccc(N4CCOCC4)cc3)n2C)c1=O`, the RP-LC retention time is 614 s.

`CN1CCC(OC2CCN(S(=O)(=O)c3ccccc3F)CC2)CC1` displayed an RP-LC retention time of 620 s.

Take `CCc1ccc(C2=C(C)C(N3CCCN(C(=O)NCCCOC)CC3)=NS2(=O)=O)cc1`: the RP-LC retention time is 761 s.

Take `CN(CCCNC(=O)C1CCCN(S(=O)(=O)c2ccc3c(ccn3C)c2)C1)Cc1ccccc1` (stereo not drawn): the RP-LC retention time was 696 s.

Regarding `CCc1nncn1C1CCN(S(=O)(=O)c2ccc(OC)c(OC)c2)CC1`, the RP-LC retention time was 650 s.

`O=C(c1ccccn1)N1CCC(n2c(-c3ccsc3)nc3cccnc32)C1` (stereo not drawn): the RP-LC retention time turned out to be 625 s.

Compound `CC(C)N1CCN(C(=O)c2csc(N3CCN(c4ccccc4)CC3)n2)CC1` came in with an RP-LC retention time of 578 s.

As to `CCC(C)NC(=O)CCn1c(=O)c2ccccc2n2c(=O)n(Cc3ccccc3F)nc12` (stereo not drawn), the RP-LC retention time is 884 s.

With `CCc1ccc(C2=C(C)C(N3CCCN(C(=O)c4ccoc4)CC3)=NS2(=O)=O)cc1`, the RP-LC retention time came out at 832 s.

Regarding `O=C(NCC1CN(CC2CC2)CC12CCCCC2)Nc1cc(F)ccc1F` (stereo not drawn), the RP-LC retention time was found to be 718 s.

Consider `COC(=O)c1ccccc1NC(=O)CCc1c(-c2ccc(Cl)cc2)nc2ccccn12`, for which the RP-LC retention time amounted to 772 s.

`CC(C)NC(=O)N1CCC2(CC1)Nc1cc(F)ccc1-n1cccc12` showed an RP-LC retention time of 895 s.

As for `CCn1cc(CC(=O)NC2CCN(Cc3ccccc3)CC2)c2cccnc21`, the RP-LC retention time was 564 s.

In turn, `Cc1ccc(-n2ccnc2SCc2nc(-c3cccc(Br)c3)no2)cc1` showed an RP-LC retention time of 1080 s.

The compound `CCOc1ccc(-c2nc(-c3ccc4c(c3)oc(=O)n4C)no2)cc1OCC` returned an RP-LC retention time of 1110 s.

Turning to `Cn1cc(S(=O)(=O)N2CCC(C(=O)Nc3ccc(F)cc3)CC2)cc1C(=O)N1CCCC1`, the RP-LC retention time is 750 s.

`Cc1ccc(NC(=O)N2CCCC2c2nc(-c3cccc(F)c3)no2)cc1` (stereo not drawn) displayed an RP-LC retention time of 1010 s.

`COc1ccccc1N1CCN(c2cc(SCC(=O)NCC3CCCO3)ncn2)CC1` (stereo not drawn) gave an RP-LC retention time of 732 s.

The compound `O=C(Nc1nccs1)C1CCN(C(=O)c2cnn(-c3ccccc3)n2)CC1` came in with an RP-LC retention time of 743 s.

`Cc1ccc2[nH]cc(CCNC(=O)c3cc(-c4ccccn4)nc4ccccc34)c2c1` had an RP-LC retention time of 902 s.

The compound `O=C(Nc1nc2ccc(Cl)cc2s1)C1CCN(C(=O)C2Sc3ccccc3NC2=O)CC1` (stereo not drawn) gave an RP-LC retention time of 903 s.

Consider `O=C(NCc1cc(F)ccc1F)C1CCN(c2cncnc2N2CCCCC2)CC1`, for which the RP-LC retention time is 709 s.

With `Cc1cc2c(c(=O)n(-c3ccc(F)cc3)c(=O)n2CC(=O)Nc2ccc(F)cc2)n1C`, the RP-LC retention time was found to be 825 s.

`CCn1c(=O)c2c(nc3n2CC(C)CN3C2CCCCC2)n(C)c1=O` (stereo not drawn) came in with an RP-LC retention time of 828 s.

With `O=C(NCc1ccccc1F)c1ccc2c(c1)nc1n2CCN(C2CCCCC2)C1=O`, the RP-LC retention time was 788 s.

`Cc1nc(-c2csc(S(=O)(=O)N3CCC(C(=O)N4CC=C(c5ccccc5)CC4)CC3)c2)no1` showed an RP-LC retention time of 1000 s.

`CN1C(=O)c2cc(S(=O)(=O)Nc3ccc(F)c(Cl)c3)ccc2Oc2cccnc21` came in with an RP-LC retention time of 962 s.

Turning to `COc1ccc(Cl)cc1NC(=O)c1cc(S(=O)(=O)N2CCC(C)CC2)cn1C`, the RP-LC retention time was determined as 1210 s.

`O=C(c1cccc2c1CCN2C(=O)c1ccc(F)cc1)N1CCOCC1` had an RP-LC retention time of 704 s.

`CCn1nccc1C(=O)N1CCCN(C2=NS(=O)(=O)C(c3ccccc3)=C2C)CC1` registered an RP-LC retention time of 714 s.

As to `O=C(COc1ccc(Cl)cc1)NCC1(O)CCOCC1`, the RP-LC retention time came to 623 s.
